PubChem BioAssay AID2060497 (Molecular Pharmacology Branch, DTP, NCI, 2025)
pIC50: −log10 of the molar value.

System: 317291-083-R-J1-PDC complex spheroids, viability
Experiment: Anticancer human tumor 317291-083-R-J1-PDC patient-derived soft tissue sarcoma cell line growth inhibition [GQUAD]
Conditions: for pIC50: curve of first compound; for viability, T/C: stronger effect = lower value
Method in brief: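 Viability of tumor cells grown as complex spheroids with endothelial and stromal cells, exposed to drug combinations. Top concentration at or near clinical Cmax (else 10 microM), diluted in half-log increments.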

[1] = second compound 0.0316 µM, first compound 0.0316 µM
[2] = second compound 0.0316 µM, first compound 0.1 µM
[3] = second compound 0.0316 µM, first compound 0.316 µM
[4] = second compound 0.0316 µM, first compound 1 µM
[5] = second compound 0.0316 µM, first compound 3.16 µM
[6] = second compound 0.0316 µM, first compound 10 µM
[7] = second compound 0.1 µM, first compound 0.0316 µM
[8] = second compound 0.1 µM, first compound 0.1 µM
[9] = second compound 0.1 µM, first compound 0.316 µM
[10] = second compound 0.1 µM, first compound 1 µM
[11] = second compound 0.1 µM, first compound 3.16 µM
[12] = second compound 0.1 µM, first compound 10 µM
[13] = second compound 0.316 µM, first compound 0.0316 µM
[14] = second compound 0.316 µM, first compound 0.1 µM
[15] = second compound 0.316 µM, first compound 0.316 µM
[16] = second compound 0.316 µM, first compound 1 µM
[17] = second compound 0.316 µM, first compound 3.16 µM
[18] = second compound 0.316 µM, first compound 10 µM
[19] = second compound 1 µM, first compound 0.0316 µM
[20] = second compound 1 µM, first compound 0.1 µM
[21] = second compound 1 µM, first compound 0.316 µM
[22] = second compound 1 µM, first compound 1 µM
[23] = second compound 1 µM, first compound 3.16 µM
[24] = second compound 1 µM, first compound 10 µM
[25] = second compound 3.16 µM, first compound 0.0316 µM
[26] = second compound 3.16 µM, first compound 0.1 µM
[27] = second compound 3.16 µM, first compound 0.316 µM
[28] = second compound 3.16 µM, first compound 1 µM
[29] = second compound 3.16 µM, first compound 3.16 µM
[30] = second compound 3.16 µM, first compound 10 µM
[31] = second compound 10 µM, first compound 0.0316 µM
[32] = second compound 10 µM, first compound 0.1 µM
[33] = second compound 10 µM, first compound 0.316 µM
[34] = second compound 10 µM, first compound 1 µM
[35] = second compound 10 µM, first compound 3.16 µM
[36] = second compound 10 µM, first compound 10 µM
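Further: spheroids exposed to compounds for one week before readout.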
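Wherever viability, T/C is given: percent viability relative to DMSO vehicle wells taken as 100%.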

How did the pIC50 (second compound 0.0316 µM) turn out when `CC(=O)O[C@H]1C(=O)[C@@]2(C)[C@H]([C@H](OC(=O)c3ccccc3)[C@]3(O)C[C@H](OC(=O)[C@H](O)[C@@H](NC(=O)c4ccccc4)c4ccccc4)C(C)=C1C3(C)C)[C@]1(OC(C)=O)CO[C@@H]1C[C@@H]2O` + Cc1cnc(CNC(=O)c2c(=O)c3ccc(N4CCCN(C)CC4)nc3n3c2sc2ccccc23)cn1 was run?
Its pIC50 is greater than 7.50.

What about the pIC50 (second compound 0.1 µM) of the same compound?
Its pIC50 is greater than 7.50.

And the pIC50 (second compound 0.316 µM)?
Its pIC50 is greater than 7.50.

And the pIC50 (second compound 1 µM)?
The pIC50 was greater than 7.50.

What about the pIC50 (second compound 3.16 µM) of the same compound?
Its pIC50 is greater than 7.50.

What about the pIC50 (second compound 10 µM) of the same compound?
Its pIC50 is greater than 7.50.

What about the viability, T/C [1] of the same compound?
Its viability, T/C is 29.2%.

What about the viability, T/C [2] of the same compound?
Its viability, T/C is 14.9%.

And the viability, T/C [3]?
Its viability, T/C is 8.69%.

And the viability, T/C [4]?
The viability, T/C was 9.72%.

What about the viability, T/C [5] of the same compound?
The viability, T/C was 11.3%.

And the viability, T/C [6]?
Its viability, T/C is 9.08%.

And the viability, T/C [7]?
The viability, T/C was 25.4%.

What about the viability, T/C [8] of the same compound?
Its viability, T/C is 8.37%.

And the viability, T/C [9]?
The viability, T/C was 11.1%.

What about the viability, T/C [10] of the same compound?
The viability, T/C was 8.92%.

What about the viability, T/C [11] of the same compound?
The viability, T/C was 10%.

What about the viability, T/C [12] of the same compound?
The viability, T/C was 10.2%.

What about the viability, T/C [13] of the same compound?
Its viability, T/C is 17.5%.

And the viability, T/C [14]?
Its viability, T/C is 12.3%.

What about the viability, T/C [15] of the same compound?
Its viability, T/C is 8.21%.

And the viability, T/C [16]?
Its viability, T/C is 9.2%.

And the viability, T/C [17]?
Its viability, T/C is 7.36%.

And the viability, T/C [18]?
Its viability, T/C is 8.93%.

What about the viability, T/C [19] of the same compound?
The viability, T/C was 17.8%.

What about the viability, T/C [20] of the same compound?
The viability, T/C was 10.5%.

And the viability, T/C [21]?
The viability, T/C was 8.43%.

And the viability, T/C [22]?
The viability, T/C was 11.4%.

What about the viability, T/C [23] of the same compound?
Its viability, T/C is 8.77%.

What about the viability, T/C [24] of the same compound?
Its viability, T/C is 9.02%.

And the viability, T/C [25]?
The viability, T/C was 14.3%.

What about the viability, T/C [26] of the same compound?
The viability, T/C was 7.98%.

What about the viability, T/C [27] of the same compound?
The viability, T/C was 11.2%.

What about the viability, T/C [28] of the same compound?
Its viability, T/C is 5.02%.

And the viability, T/C [29]?
Its viability, T/C is 14.6%.

And the viability, T/C [30]?
Its viability, T/C is 5.59%.

What about the viability, T/C [31] of the same compound?
The viability, T/C was 0.22%.

And the viability, T/C [32]?
The viability, T/C was 11.5%.

And the viability, T/C [33]?
Its viability, T/C is 7.59%.

What about the viability, T/C [34] of the same compound?
The viability, T/C was 1.49%.

What about the viability, T/C [35] of the same compound?
The viability, T/C was 0.95%.

And the viability, T/C [36]?
The viability, T/C was 0.58%.

With `CC[C@@]1(O)C(=O)OCc2c1cc1n(c2=O)Cc2cc3c(CN(C)C)c(O)ccc3nc2-1` + Cc1cnc(CNC(=O)c2c(=O)c3ccc(N4CCCN(C)CC4)nc3n3c2sc2ccccc23)cn1 as the compound, how does the pIC50 (second compound 0.0316 µM) read?
The pIC50 was 7.45.

What about the pIC50 (second compound 0.1 µM) of the same compound?
The pIC50 was 7.72.

What about the pIC50 (second compound 0.316 µM) of the same compound?
Its pIC50 is greater than 9.00.

And the pIC50 (second compound 1 µM)?
The pIC50 was greater than 9.00.

What about the pIC50 (second compound 3.16 µM) of the same compound?
Its pIC50 is greater than 9.00.

And the pIC50 (second compound 10 µM)?
Its pIC50 is greater than 9.00.

And the viability, T/C (second compound 0.0316 µM, first compound 0.000999 µM)?
Its viability, T/C is 86.2%.

And the viability, T/C (second compound 0.0316 µM, first compound 0.00316 µM)?
Its viability, T/C is 93.8%.

What about the viability, T/C (second compound 0.0316 µM, first compound 0.00999 µM) of the same compound?
Its viability, T/C is 91.7%.

What about the viability, T/C [1] of the same compound?
The viability, T/C was 53.3%.

And the viability, T/C (second compound 0.0316 µM, first compound 0.0999 µM)?
The viability, T/C was 20.8%.

And the viability, T/C [3]?
The viability, T/C was 15.8%.

What about the viability, T/C (second compound 0.1 µM, first compound 0.000999 µM) of the same compound?
Its viability, T/C is 71%.

And the viability, T/C (second compound 0.1 µM, first compound 0.00316 µM)?
Its viability, T/C is 80.7%.

And the viability, T/C (second compound 0.1 µM, first compound 0.00999 µM)?
Its viability, T/C is 78.1%.

And the viability, T/C [7]?
Its viability, T/C is 29%.

And the viability, T/C (second compound 0.1 µM, first compound 0.0999 µM)?
Its viability, T/C is 21.9%.

And the viability, T/C [9]?
The viability, T/C was 12.8%.

And the viability, T/C (second compound 0.316 µM, first compound 0.000999 µM)?
Its viability, T/C is 43.5%.

And the viability, T/C (second compound 0.316 µM, first compound 0.00316 µM)?
Its viability, T/C is 52.9%.

What about the viability, T/C (second compound 0.316 µM, first compound 0.00999 µM) of the same compound?
Its viability, T/C is 28.2%.

And the viability, T/C [13]?
The viability, T/C was 20.7%.

And the viability, T/C (second compound 0.316 µM, first compound 0.0999 µM)?
Its viability, T/C is 17.3%.

And the viability, T/C [15]?
The viability, T/C was 9.62%.

What about the viability, T/C (second compound 1 µM, first compound 0.000999 µM) of the same compound?
The viability, T/C was 35.7%.

And the viability, T/C (second compound 1 µM, first compound 0.00316 µM)?
The viability, T/C was 28.2%.

What about the viability, T/C (second compound 1 µM, first compound 0.00999 µM) of the same compound?
Its viability, T/C is 25.6%.

And the viability, T/C [19]?
The viability, T/C was 20.1%.

What about the viability, T/C (second compound 1 µM, first compound 0.0999 µM) of the same compound?
Its viability, T/C is 14.7%.

What about the viability, T/C [21] of the same compound?
Its viability, T/C is 15.3%.

And the viability, T/C (second compound 3.16 µM, first compound 0.000999 µM)?
Its viability, T/C is 39.7%.

And the viability, T/C (second compound 3.16 µM, first compound 0.00316 µM)?
The viability, T/C was 37.8%.

And the viability, T/C (second compound 3.16 µM, first compound 0.00999 µM)?
The viability, T/C was 16.1%.

What about the viability, T/C [25] of the same compound?
Its viability, T/C is 14.7%.

What about the viability, T/C (second compound 3.16 µM, first compound 0.0999 µM) of the same compound?
Its viability, T/C is 13.4%.

And the viability, T/C [27]?
The viability, T/C was 7.16%.

And the viability, T/C (second compound 10 µM, first compound 0.000999 µM)?
The viability, T/C was 28.9%.

And the viability, T/C (second compound 10 µM, first compound 0.00316 µM)?
The viability, T/C was 30.3%.

And the viability, T/C (second compound 10 µM, first compound 0.00999 µM)?
The viability, T/C was 45.9%.

What about the viability, T/C [31] of the same compound?
The viability, T/C was 19.7%.

And the viability, T/C (second compound 10 µM, first compound 0.0999 µM)?
Its viability, T/C is 24%.

What about the viability, T/C [33] of the same compound?
Its viability, T/C is 12.2%.

What does the source list for `COc1cc(C2c3cc4c(cc3C(OC3OC5COC(C)OC5C(O)C3O)C3COC(=O)C23)OCO4)cc(OC)c1O` (stereo unspecified) + Cc1cnc(CNC(=O)c2c(=O)c3ccc(N4CCCN(C)CC4)nc3n3c2sc2ccccc23)cn1?
pIC50 (second compound 0.0316 µM): 6.63; pIC50 (second compound 0.1 µM): 7.16; pIC50 (second compound 0.316 µM): 7.18; pIC50 (second compound 1 µM): > 7.50; pIC50 (second compound 3.16 µM): > 7.50; pIC50 (second compound 10 µM): > 7.50; viability, T/C [1]: 81.6%; viability, T/C [2]: 68.3%; viability, T/C [3]: 41.4%; viability, T/C [4]: 27.7%; viability, T/C [5]: 15.4%; viability, T/C [6]: 11.6%; viability, T/C [7]: 57.5%; viability, T/C [8]: 46.3%; viability, T/C [9]: 35.3%; viability, T/C [10]: 24.9%; viability, T/C [11]: 15.6%; viability, T/C [12]: 9.12%; viability, T/C [13]: 70.5%; viability, T/C [14]: 39.3%; viability, T/C [15]: 19.3%; viability, T/C [16]: 18.8%; viability, T/C [17]: 16.2%; viability, T/C [18]: 10.7%; viability, T/C [19]: 35.9%; viability, T/C [20]: 28.4%; viability, T/C [21]: 22.7%; viability, T/C [22]: 18.7%; viability, T/C [23]: 9.1%; viability, T/C [24]: 8.25%; viability, T/C [25]: 22.9%; viability, T/C [26]: 41.3%; viability, T/C [27]: 14.7%; viability, T/C [28]: 13.1%; viability, T/C [29]: 9.56%; viability, T/C [30]: 3.72%; viability, T/C [31]: 28.6%; viability, T/C [32]: 14.6%; viability, T/C [33]: 9.56%; viability, T/C [34]: 10.8%; viability, T/C [35]: 5.33%; viability, T/C [36]: 11.2%
